The values below come from ChEMBL document CHEMBL5634137, “2,4-Diacetylphloroglucinol (DAPG) derivatives rapidly eradicate methicillin-resistant staphylococcus aureus without resistance development by disrupting membrane” (Eur J Med Chem, 2023).

In brackets after ≈: the same amount, converted by molar mass. A value given as a limit tells only on which side of the number the result lay.

The subject of the first assay is Staphylococcus aureus. Description: Antibacterial activity against methicillin-resistant Staphylococcus aureus ATCC 4330 assessed as inhibition of bacterial growth incubated for 24 hrs by broth dilution method. Format: functional.
For `CCCCCCCCCC(=O)c1c(O)cc(O)cc1O`, the MIC was 32 mg/L (≈ 114 µM).
On the same count and under the same terms, the figure for `CC(C)C(=O)c1c(O)cc(O)cc1O` [PHLOROISOBUTYROPHENONE] is 32 mg/L (≈ 163 µM); for `O=C(c1c(O)cc(O)cc1O)C1CCCC1` it is 64 mg/L (≈ 288 µM); for `O=Cc1c(O)cc(O)c(C=O)c1O` it is over 64 mg/L.
Same read-out and setting: the figure for `COc1cc(OC)c(C(C)=O)c(OC)c1C(C)=O` is over 64 mg/L.
Still for that read-out and setting: to `COc1cc(O)c(C(C)=O)c(O)c1C(C)=O` belongs over 64 mg/L; to `CCC(=O)c1c(O)cc(O)cc1O` [FLOPROPIONE], over 64 mg/L.
Regarding `CCCCCC(=O)c1c(O)cc(O)cc1O`, the minimal inhibitory concentration (MIC) stood at 32 mg/L (≈ 143 µM).
Still for that read-out and setting: to `CCCCCCCC(=O)c1c(O)cc(O)cc1O` belongs 8 mg/L (≈ 31.7 µM); to `CC(C)(C)CC(=O)c1c(O)cc(O)cc1O`, 64 mg/L (≈ 285 µM).
On the same count and under the same terms, to `CCCCC(=O)c1c(O)cc(O)c(C(C)=O)c1O` belongs 4 mg/L (≈ 15.9 µM); to `CCC(C)C(=O)c1c(O)cc(O)c(C(=O)C(C)CC)c1O` (configuration not stated), 4 mg/L (≈ 13.6 µM); to `O=C(c1c(O)cc(O)cc1O)C1CCCCC1`, 64 mg/L (≈ 271 µM).
For the compound `CCCCCCCCC(=O)c1c(O)cc(O)cc1O`, the minimum inhibitory concentration (MIC) is 8 mg/L (≈ 30 µM).
On the same count and under the same terms, to `CCCCCCCCCC(=O)c1c(O)cc(O)c(C(=O)CCCCCCCCC)c1O` belongs 8 mg/L (≈ 18.4 µM).
On the same count and under the same terms, to `COc1cc(OC)c(C(C)=O)c(O)c1C(C)=O` belongs over 64 mg/L; to `CCCCCCCCCCCCCCCC(=O)c1c(O)cc(O)cc1O`, over 64 mg/L.
On the same count and under the same terms, to `CC(C)C(=O)c1c(O)cc(O)c(C(=O)C(C)C)c1O` belongs 4 mg/L (≈ 15 µM); to `CCCCCCCCCCCCCCCC(=O)c1c(O)cc(O)c(C(=O)CCCCCCCCCCCCCCC)c1O`, over 64 mg/L.
Consider `O=Cc1c(O)cc(O)cc1O` [PHLOROGLUCINALDEHYDE], for which the MIC is over 64 mg/L.
With `CCCCCCC(=O)c1c(O)cc(O)cc1O`, the MIC stood at 16 mg/L (≈ 67.1 µM).
Same read-out and setting: to `O=C(O)c1cn(C2CC2)c2cc(N3CCNCC3)c(F)cc2c1=O` [CIPROFLOXACIN] belongs 0.25 mg/L (≈ 0.754 µM).

A further assay concerns Staphylococcus aureus. Description: Antibacterial activity against methicillin-resistant Staphylococcus aureus ATCC 3392 assessed as inhibition of bacterial growth incubated for 24 hrs by broth dilution method. It is filed as functional.
As to `CCCCCCCCCC(=O)c1c(O)cc(O)cc1O`, the MIC came out at 32 mg/L (≈ 114 µM).
Regarding `CC(C)C(=O)c1c(O)cc(O)cc1O` [PHLOROISOBUTYROPHENONE], the minimal inhibitory concentration (MIC) came to 64 mg/L (≈ 326 µM).
With `O=C(c1c(O)cc(O)cc1O)C1CCCC1`, the minimum inhibitory concentration (MIC) worked out at 64 mg/L (≈ 288 µM).
The same measure, in the same setting: the figure for `O=Cc1c(O)cc(O)c(C=O)c1O` is over 64 mg/L; for `COc1cc(OC)c(C(C)=O)c(OC)c1C(C)=O` it is over 64 mg/L; for `COc1cc(O)c(C(C)=O)c(O)c1C(C)=O` it is over 64 mg/L.
The same measure, in the same setting: the figure for `CCC(=O)c1c(O)cc(O)cc1O` [FLOPROPIONE] is over 64 mg/L; for `CCCCCC(=O)c1c(O)cc(O)cc1O` it is 32 mg/L (≈ 143 µM).
Same read-out and setting: the figure for `CCCCCCCC(=O)c1c(O)cc(O)cc1O` is 8 mg/L (≈ 31.7 µM).
As for `CC(C)(C)CC(=O)c1c(O)cc(O)cc1O`, the MIC was over 64 mg/L.
Same read-out and setting: to `CCCCC(=O)c1c(O)cc(O)c(C(C)=O)c1O` belongs 8 mg/L (≈ 31.7 µM); to `CCC(C)C(=O)c1c(O)cc(O)c(C(=O)C(C)CC)c1O` (configuration not stated), 4 mg/L (≈ 13.6 µM); to `O=C(c1c(O)cc(O)cc1O)C1CCCCC1`, over 64 mg/L.
Still for that read-out and setting: the figure for `CCCCCCCCC(=O)c1c(O)cc(O)cc1O` is 8 mg/L (≈ 30 µM).
Regarding `CCCCCCCCCC(=O)c1c(O)cc(O)c(C(=O)CCCCCCCCC)c1O`, the minimum inhibitory concentration (MIC) is 8 mg/L (≈ 18.4 µM).
The same measure, in the same setting: to `COc1cc(OC)c(C(C)=O)c(O)c1C(C)=O` belongs over 64 mg/L; to `CCCCCCCCCCCCCCCC(=O)c1c(O)cc(O)cc1O`, over 64 mg/L.
The same measure, in the same setting: to `CC(C)C(=O)c1c(O)cc(O)c(C(=O)C(C)C)c1O` belongs 4 mg/L (≈ 15 µM); to `CCCCCCCCCCCCCCCC(=O)c1c(O)cc(O)c(C(=O)CCCCCCCCCCCCCCC)c1O`, over 64 mg/L; to `O=Cc1c(O)cc(O)cc1O` [PHLOROGLUCINALDEHYDE], over 64 mg/L.
On the same count and under the same terms, to `CCCCCCC(=O)c1c(O)cc(O)cc1O` belongs 16 mg/L (≈ 67.1 µM); to `O=C(O)c1cn(C2CC2)c2cc(N3CCNCC3)c(F)cc2c1=O` [CIPROFLOXACIN], 0.25 mg/L (≈ 0.754 µM).

For the next assay, the system named is Staphylococcus aureus. In words: Antibacterial activity against Methicillin-resistant Staphylococcus aureus USA300 assessed as inhibition of bacterial growth incubated for 24 hrs by broth dilution method. It is filed as functional.
Turning to `CC1(C)S[C@@H]2[C@H](NC(=O)[C@H](N)c3ccc(O)cc3)C(=O)N2[C@H]1C(=O)O` [AMOXICILLIN], the minimum inhibitory concentration (MIC) was 128 mg/L (≈ 350 µM).
As to `C[C@H]1c2cccc(O)c2C(=O)C2=C(O)[C@]3(O)C(=O)C(C(N)=O)=C(O)[C@@H](N(C)C)[C@@H]3[C@@H](O)[C@@H]21` [DOXYCYCLINE ANHYDROUS], the MIC worked out at 0.5 mg/L (≈ 1.13 µM).
On the same count and under the same terms, to `O=C(O)c1cn(C2CC2)c2cc(N3CCNCC3)c(F)cc2c1=O` [CIPROFLOXACIN] belongs 0.25 mg/L (≈ 0.754 µM).
